The record followed here is ChEMBL document CHEMBL2311263, “Dibenzosuberones as p38 mitogen-activated protein kinase inhibitors with low ATP competitiveness and outstanding whole blood activity” (J Med Chem, 2013).

In assay [1] the target is T1, Mitogen-activated protein kinase 14 (Homo sapiens, UniProt Q16539). Put plainly: Inhibition of p38alpha MAP kinase in whole blood (unknown origin) assessed as lipopolysaccharide-stimulated TNF-alpha release by ELISA.
For assay [2], the target named is T1, Mitogen-activated protein kinase 14. Description: Inhibition of p38alpha MAP kinase (unknown origin) by ELISA. Background: An ELISA detects its analyte on a solid surface through an enzyme-linked reagent.
The target is the same in assay [3]. Put plainly: Inhibition of p38alpha MAP kinase in whole blood (unknown origin) assessed as lipopolysaccharide-stimulated TNF-alpha release measuring residual activity at 10 uM by ELISA.
Assay [4] has the same target. The settings on record: Blood, 1 uM.
Assay [5] has as its target Casein kinase I isoform epsilon (Homo sapiens) (UniProt P49674). Put plainly: Inhibition of CSNK1E (unknown origin).
For assay [6], the target named is Mitogen-activated protein kinase 11 (Homo sapiens) (UniProt Q15759). Description: Inhibition of p38beta MAP kinase (unknown origin).

Activity calls are given as the source filed them. The rule behind the calls is not given here.

T1 sequence (Q16539 whole entry): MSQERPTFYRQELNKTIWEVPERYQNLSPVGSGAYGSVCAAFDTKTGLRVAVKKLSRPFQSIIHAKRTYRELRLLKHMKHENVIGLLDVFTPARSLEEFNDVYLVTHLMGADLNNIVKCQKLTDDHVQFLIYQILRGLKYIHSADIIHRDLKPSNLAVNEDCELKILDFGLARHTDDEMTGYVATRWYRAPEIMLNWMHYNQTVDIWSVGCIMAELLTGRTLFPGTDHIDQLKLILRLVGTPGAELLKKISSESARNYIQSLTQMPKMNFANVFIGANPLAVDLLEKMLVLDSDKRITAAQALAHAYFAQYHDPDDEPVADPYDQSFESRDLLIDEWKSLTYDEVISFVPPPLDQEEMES
Sequence of Mitogen-activated protein kinase 11 (Homo sapiens) (Q15759 whole entry): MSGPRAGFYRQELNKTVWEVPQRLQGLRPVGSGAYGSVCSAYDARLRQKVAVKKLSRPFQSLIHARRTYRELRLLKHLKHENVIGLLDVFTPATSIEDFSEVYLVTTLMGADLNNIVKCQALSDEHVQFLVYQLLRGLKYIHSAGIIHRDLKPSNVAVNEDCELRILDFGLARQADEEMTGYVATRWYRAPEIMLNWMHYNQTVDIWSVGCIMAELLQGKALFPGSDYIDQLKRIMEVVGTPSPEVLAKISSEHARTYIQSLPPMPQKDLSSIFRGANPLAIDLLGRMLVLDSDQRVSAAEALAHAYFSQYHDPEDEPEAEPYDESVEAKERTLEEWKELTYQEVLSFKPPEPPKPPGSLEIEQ
Sequence of Casein kinase I isoform epsilon (Homo sapiens) (P49674 whole entry, looked up, canonical isoform): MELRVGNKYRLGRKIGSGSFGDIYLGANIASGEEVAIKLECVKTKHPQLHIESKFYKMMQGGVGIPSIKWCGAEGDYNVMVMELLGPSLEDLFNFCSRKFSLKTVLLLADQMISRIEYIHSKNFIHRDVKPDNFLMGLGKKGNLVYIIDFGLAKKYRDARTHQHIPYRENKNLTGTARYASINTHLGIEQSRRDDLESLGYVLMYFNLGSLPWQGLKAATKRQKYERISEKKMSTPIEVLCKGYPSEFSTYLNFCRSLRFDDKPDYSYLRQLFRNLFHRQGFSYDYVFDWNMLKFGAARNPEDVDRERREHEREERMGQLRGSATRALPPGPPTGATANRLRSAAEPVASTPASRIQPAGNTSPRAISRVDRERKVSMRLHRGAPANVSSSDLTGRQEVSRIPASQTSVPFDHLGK

Usually IC50 stands for the midpoint of a concentration-inhibition curve. For the compound `O=C(NCCN1CCOCC1)c1ccc2c(c1)C(=O)c1ccc(Nc3ccc(F)cc3F)cc1CC2`, the IC50 in assay [1] is 29 nM; in assay [2] it was 3 nM.

For the compound `O=C1c2ccc(Nc3ccc(F)c(NC(=O)C4CCOC4)c3)cc2CCc2ccc(OCCO)cc21` (configuration not stated), the IC50 came out at 1500 nM in assay [1] and 20 nM in assay [2].

For the compound `CN1CCN(CCNC(=O)c2ccc3c(c2)C(=O)c2ccc(Nc4ccc(F)cc4F)cc2CC3)CC1`, the IC50 is 27 nM in assay [1] and 10 nM in assay [2].

Turning to `COC(=O)CC[C@H](NC(=O)c1ccc2c(c1)C(=O)c1ccc(Nc3ccc(F)cc3F)cc1CC2)C(=O)OC`, the IC50 was determined as 18 nM in assay [1] and 5 nM in assay [2].

`O=C1c2ccc(Nc3ccc(F)cc3F)cc2CCc2ccc(C(=O)N3CCOCC3)cc21`: the Activity in assay [3] came out at 39%. In addition, the IC50 in assay [2] was 44 nM.

In the case of `O=C(Nc1cc(Nc2ccc3c(c2)CCc2ccccc2C3=O)c(F)cc1F)c1ccccc1`, the 50% inhibitory concentration (IC50) in assay [1] stood at 290 nM; in assay [2], 4 nM.

With `CNC(=O)CC[C@H](NC(=O)c1ccc2c(c1)C(=O)c1ccc(Nc3ccc(F)cc3F)cc1CC2)C(=O)NC`, the IC50 worked out at 64 nM in assay [1] and 14 nM in assay [2].

As for `CCOC(=O)c1ccc2c(c1)C(=O)c1ccc(Nc3ccc(F)cc3F)cc1CC2`, the half-maximal inhibitory concentration (IC50) worked out at 270 nM in assay [1] and 3 nM in assay [2].

For the compound `COc1ccc2c(c1)C(=O)c1ccc(Nc3ccc(F)c(NC(=O)c4ccccc4)c3)cc1CC2`, the values for the IC50 in assay [1] and in assay [2] were 4100 nM and 21 nM, respectively.

For the compound `O=C(Nc1cc(Nc2ccc3c(c2)CCc2ccc(OCCN4CCOCC4)cc2C3=O)c(F)cc1F)c1ccccc1`, the values for the IC50 in assay [1] and in assay [2] were 220 nM and 1 nM, respectively.

In the case of `CN1CCN(CCCNC(=O)c2ccc3c(c2)C(=O)c2ccc(Nc4ccc(F)cc4F)cc2CC3)CC1`, the IC50 in assay [1] stood at 19 nM; in assay [2] it was 10 nM.

For `CC(C)C[C@H](NC(=O)c1ccc2c(c1)C(=O)c1ccc(Nc3ccc(F)cc3F)cc1CC2)C(=O)O`, 94 nM corresponded to half-maximal inhibition in assay [2] (IC50). In addition, the inhibition result in assay [4] is “inactive”.

`CCOC(=O)CNC(=O)c1ccc2c(c1)C(=O)c1ccc(Nc3ccc(F)cc3F)cc1CC2`: the IC50 was 95 nM in assay [1] and 6 nM in assay [2].

As for `O=C(Nc1cc(Nc2ccc3c(c2)CCc2ccc(OC[C@H](O)CO)cc2C3=O)ccc1F)c1cccs1`, the IC50 in assay [1] was determined as 42 nM; in assay [2], 7 nM.

For the compound `O=C(Nc1cc(Nc2ccc3c(c2)CCc2ccc(OCCN4CCOCC4)cc2C3=O)c(F)cc1F)c1ccsc1`, the IC50 in assay [1] turned out to be 12 nM.

`CN(C)CCNC(=O)c1ccc2c(c1)C(=O)c1ccc(Nc3ccc(F)cc3F)cc1CC2`: the IC50 is 18 nM in assay [1] and 3 nM in assay [2].

As to `O=C(O)c1ccc2c(c1)C(=O)c1ccc(Nc3ccc(F)cc3F)cc1CC2`, the IC50 in assay [1] came out at 490 nM; in assay [2], 11 nM.

Turning to `O=C(OCCO)c1ccc2c(c1)C(=O)c1ccc(Nc3ccc(F)cc3F)cc1CC2`, the IC50 was 210 nM in assay [1] and 2 nM in assay [2].

Consider `O=C(Nc1cc(Nc2ccc3c(c2)CCc2ccc(OCCO)cc2C3=O)ccc1F)c1ccccc1`, for which the figures for the IC50 in assay [1] and in assay [2] were 2400 nM and 2 nM, respectively.

`O=C1c2ccc(Nc3cc(NC(=O)C4CCOC4)c(F)cc3F)cc2CCc2ccc(OCCN3CCOCC3)cc21` (configuration not stated): the IC50 in assay [1] worked out at 150 nM; in assay [2], 12 nM.

`CC1(C)OC[C@@H](COc2ccc3c(c2)C(=O)c2ccc(Nc4ccc(F)c(NC(=O)c5ccccc5)c4)cc2CC3)O1`: the IC50 in assay [1] was 450 nM; in assay [2] it was 27 nM.

As to `O=C(OCCN1CCOCC1)c1ccc2c(c1)C(=O)c1ccc(Nc3ccc(F)cc3F)cc1CC2`, the IC50 came to 240 nM in assay [1] and 1 nM in assay [2].

In the case of `O=C(NCCO)c1ccc2c(c1)C(=O)c1ccc(Nc3ccc(F)cc3F)cc1CC2`, the IC50 came to 27 nM in assay [1] and 5 nM in assay [2].

On to `COCCNC(=O)c1ccc2c(c1)C(=O)c1ccc(Nc3ccc(F)cc3F)cc1CC2`, for which the IC50 amounted to 54 nM in assay [1] and 5 nM in assay [2].

As for `COC(=O)[C@H](CC(C)C)NC(=O)c1ccc2c(c1)C(=O)c1ccc(Nc3ccc(F)cc3F)cc1CC2`, the results for the IC50 in assay [1] and in assay [2] were 460 nM and 7 nM, respectively.

Consider `CC(=O)Oc1ccc2c(c1)C(=O)c1ccc(Nc3ccc(F)cc3F)cc1CC2`, for which the IC50 amounted to 2300 nM in assay [1] and 29 nM in assay [2].

`O=C(NCCF)c1ccc2c(c1)C(=O)c1ccc(Nc3ccc(F)cc3F)cc1CC2`: the IC50 in assay [1] came out at 83 nM; in assay [2], 2 nM.

With `O=C(Nc1cc(Nc2ccc3c(c2)CCc2ccc(OCCN4CCOCC4)cc2C3=O)ccc1F)c1ccsc1`, the IC50 in assay [1] amounted to 26 nM; in assay [2], 0.3 nM.

With `O=C(Nc1cc(Nc2ccc3c(c2)CCc2ccc(OCCN4CCOCC4)cc2C3=O)ccc1F)c1cccs1`, the figures for the IC50 in assay [1] and in assay [2] were 95 nM and 0.7 nM, respectively.

`Cc1cc(F)c(NC(=O)C2CCOC2)cc1Nc1ccc2c(c1)CCc1ccc(OCCN3CCOCC3)cc1C2=O` (configuration not stated): the IC50 is 570 nM in assay [1] and 98 nM in assay [2].

In the case of `Cc1cc(F)c(NC(=O)c2ccoc2)cc1Nc1ccc2c(c1)CCc1ccc(OCCN3CCOCC3)cc1C2=O`, the concentration for half-maximal inhibition (IC50) in assay [1] is 32 nM; in assay [2], 1 nM.

As for `O=C(Nc1cc(Nc2ccc3c(c2)CCc2ccc(OCCN4CCOCC4)cc2C3=O)ccc1F)c1ccoc1`, the figures for the IC50 in assay [1] and in assay [2] were 110 nM and 1 nM, respectively.

Take `C[C@@H](NC(=O)c1ccc2c(c1)C(=O)c1ccc(Nc3ccc(F)cc3F)cc1CC2)C1CCCCC1`: the IC50 in assay [1] came out at 7600 nM; in assay [2], 89 nM.

Consider `CC1(C)OC[C@H](COc2ccc3c(c2)C(=O)c2ccc(Nc4ccc(F)c(NC(=O)c5cccs5)c4)cc2CC3)O1`, for which the IC50 in assay [1] stood at 300 nM; in assay [2], 2 nM.

In the case of `CNC(=O)c1ccc2c(c1)C(=O)c1ccc(Nc3ccc(F)cc3F)cc1CC2`, the IC50 in assay [1] was 37 nM; in assay [2], 3 nM.

Take `O=C(NCCCl)c1ccc2c(c1)C(=O)c1ccc(Nc3ccc(F)cc3F)cc1CC2`: the IC50 in assay [1] is 64 nM; in assay [2] it was 3 nM.

Take `COC(=O)c1ccc2c(c1)C(=O)c1ccc(Nc3ccc(F)cc3F)cc1CC2`: the IC50 was 160 nM in assay [1] and 2 nM in assay [2].

In the case of `O=C(NCCN1CCOCC1)c1ccc2c(c1)C(=O)c1ccc(Nc3ccc(F)c(NC(=O)c4ccccc4)c3)cc1CC2`, the inhibition result in assay [5] and in assay [6] was “Active” each time.

Take `CS(=O)(=O)CCNC(=O)c1ccc2c(c1)C(=O)c1ccc(Nc3ccc(F)cc3F)cc1CC2`: the IC50 in assay [1] came out at 50 nM; in assay [2], 3 nM.

Regarding `CCCOC(=O)c1ccc2c(c1)C(=O)c1ccc(Nc3ccc(F)cc3F)cc1CC2`, the IC50 was determined as 220 nM in assay [1] and 8 nM in assay [2].

For `CSCCNC(=O)c1ccc2c(c1)C(=O)c1ccc(Nc3ccc(F)cc3F)cc1CC2`, the figures for the IC50 in assay [1] and in assay [2] were 36 nM and 2 nM, respectively.

In the case of `O=C(NC(CO)CO)c1ccc2c(c1)C(=O)c1ccc(Nc3ccc(F)cc3F)cc1CC2`, the IC50 is 17 nM in assay [1] and 9 nM in assay [2].

`O=C(Nc1ccc(F)c(Nc2ccc3c(c2)CCc2ccc(OCCO)cc2C3=O)c1)c1ccccc1`: the results for the IC50 in assay [1] and in assay [2] were 9000 nM and 2 nM, respectively.

Regarding `O=C(NCC(O)CO)c1ccc2c(c1)C(=O)c1ccc(Nc3ccc(F)cc3F)cc1CC2` (configuration not stated), the inhibition result in assay [6] is “Active”. The IC50 came out at 29 nM in assay [1] and 2 nM in assay [2].

In the case of `O=C(Nc1cc(Nc2ccc3c(c2)CCc2ccc(OCCN4CCOCC4)cc2C3=O)ccc1F)c1ccccc1`, the half-maximal inhibitory concentration (IC50) in assay [1] was 260 nM; in assay [2], 1 nM.

Consider `NC(=O)c1ccc2c(c1)C(=O)c1ccc(Nc3ccc(F)cc3F)cc1CC2`, for which the IC50 is 19 nM in assay [1] and 10 nM in assay [2].
